Non-standard residues stand in square brackets, D forms with d. Residues, ends and D or L forms follow the SMILES beside them. *: point of attachment. Dnp = O=[N+]([O-])c1ccc(*)c([N+](=O)[O-])c1
How the values were obtained:
non-specific peptidases [1] = assay: Time course of hydrolysis of substrate solution(a) by non-specific peptidase (Example 13); format: biochemical, human
Method: (§1) Purified collagenase used in Examples was prepared from cultured media of tadpole skin explants as described in Biochem. Biophs. Acta, 263 564(1972), and non-specific peptidases were prepared by subjecting 5 ml of fresh adult human serum to chromatography on a calibrated Sephadex G-200 superfine gel column equilibrated with 0.05 M Tris-HCl buffer, pH 7.5, containing 0.15 M NaCl and 5 mM CaCl2, and gathering the effluent fractions corresponding to molecular weights of 100,000-180,000.
(§2) 0.9 ml Each of the substrate solutions was diluted with 0.88 ml of 0.05M tris-HCl buffer, pH 7.5, containing 0.15 M NaCl, and 5 m MCaCl2. The resulting solution was mixed with 0.02 ml of purified collagenase, and incubated. 0.2 ml Aliquots of the reaction mixture were taken out at 0, 10, 20, 40, 60 and 120 minutes, and mixed with 0.5 ml of 1M hydrochloric acid for stopping the enzyme reaction.
(§3) The DNP-peptide fragments released were extracted by vigorous shaking with 1 ml of ethyl acetate-n-butanol (1:0.15, V/V) followed by centrifugation at 3,000-5,000 rpm and room temperature for 10 minutes to separate two layers completely. The degree of hydrolysis was determined by measuring the absorbance of the organic layer at 365 nm.
1 ml of the substrate solution(a) prepared in Example 12 was mixed with 1.0 ml of non-specific peptidase, and the resulting solution was worked up as in Example 12.

purified collagenase [2] = assay: Time course of hydrolysis of substrate solutions by purified collagenase (Example 12); format: biochemical, tadpole; details: for 00365 (absorbance of the organic layer at 365 nm): pH 7.5
Method: as §1
DNP-Pro-Gln-Gly-Ile-Ala-Gly-Gln-D-Arg-OH.CH3 COOH.H2 O (4.96 mg) was neutralized with 0.1N sodium hydroxide, and dissolved in 0.05M tris-HCl buffer, pH 7.5, containing 0.15 M NaCl and 5 m MCaCl2 to make 10 ml of the substrate solution (a) having a concentration of 5×10^-4 M. The substrate solution (b) was also prepared similarly by using DNP-Gln-Gly-Ile-Ala-Gly-Gln-D-Arg-OH.CH3 COOH.H2 O (4.48 mg).
as §2, §3

[3] = test system: collagenase in synovial fluids; assay: Hydrolysis of substrate solutions by synovial fluids from patients; collagenase activity (Example 14); format: biochemical, human; details: for OD365/0.1 ml ohr: 0 hr; for OD365/0.1 ml 2hr: 2 hr at 37° C.; for OD365/0.1 ml increment: 2 hr minus 0 hr
Method: as §3
0.2 ml Each of the substrate (solutions(a) and (b) prepared in Example 12 was mixed with 0.1 ml of synovial fluids from patients with osteoarthritis and rheumatoid arthritis, and incubated for 2 hours at 37° C. After stopping the enzyme reaction by adding 0.5 ml of 1 M hydrochloric acid, the DNP-peptide fragments released were extracted by vigorous shaking with 2 ml of ethyl acetate-n-butanol (1:0.15, V/V), and worked up as in Example 12 to obtain the collagenase activities.

purified collagenase [4] = assay: Rate of hydrolysis of DNP-peptide derivatives by purified collagenase (Example 15); format: biochemical, tadpole; details: 5×10^-4 M peptide, purified collagenase 6.2 U/ml, 37° C., pH 7.5; average of three experiments; extraction with ethyl acetate (* compounds: ethyl acetate-n-butanol 1:0.15)
Method: as §1
(§4) Various DNP-peptide derivatives were dissolved in 0.05 M Tris-HCl buffer, pH 7.5, containing 0.15 M NaCl, 5 mM CaCl2 and 0.02% bovine serum albumin to make a concentration of 5×10^-4 M. 0.1 ml Each of the peptide derivative solutions was mixed with an equal volume of purified collagenase (6.2 U/ml) or non-specific peptidases and incubated for various periods at 37° C. After stopping the enzyme reaction by adding 0.5 ml of 1 M HCl, the DNP-peptide fragments released were extracted by vigorous shaking with 1 ml of ethylacetate or ethyl acetate-n-butanol (1:0.15, V/V), and worked up as in Example 12.

non-specific peptidases [5] = assay: Rate of hydrolysis of DNP-peptide derivatives by non-specific peptidases (Example 15); format: biochemical, human; details: 5×10^-4 M peptide, 37° C., pH 7.5; average of three experiments; extraction with ethyl acetate (* compounds: ethyl acetate-n-butanol 1:0.15)
Method: as §1, §4

[6] = synovial fluid of case five, RA
[7] = synovial fluid of case four, OA
[8] = synovial fluid of case three, RA

CC[C@H](C)[C@H](NC(=O)CNC(=O)[C@H](CCC(N)=O)NC(=O)[C@@H]1CCCN1c1ccc([N+](=O)[O-])cc1[N+](=O)[O-])C(=O)N[C@@H](C)C(=O)NCC(=O)N[C@@H](CCC(N)=O)C(=O)N[C@H](CCCNC(=N)N)C(=O)O [Example 1, DNP-Pro-Gln-Gly-Ile-Ala-Gly-Gln-D-Arg-OH] (Dnp-PQGIAGQ[dR]-OH)
00365 (absorbance of the organic layer at 365 nm) (non-specific peptidases [1]; incubation time 0 min): 0.053 | 00365 (absorbance of the organic layer at 365 nm) (non-specific peptidases [1]; incubation time 10 min): 0.054 | increment of 00365 (non-specific peptidases [1]; incubation time 10 min): 0.001 | 00365 (absorbance of the organic layer at 365 nm) (non-specific peptidases [1]; incubation time 20 min): 0.056 | increment of 00365 (non-specific peptidases [1]; incubation time 20 min): 0.002 | 00365 (absorbance of the organic layer at 365 nm) (non-specific peptidases [1]; incubation time 40 min): 0.058 | increment of 00365 (non-specific peptidases [1]; incubation time 40 min): 0.004 | 00365 (absorbance of the organic layer at 365 nm) (non-specific peptidases [1]; incubation time 60 min): 0.060 | increment of 00365 (non-specific peptidases [1]; incubation time 60 min): 0.007 | 00365 (absorbance of the organic layer at 365 nm) (non-specific peptidases [1]; incubation time 120 min): 0.063 | increment of 00365 (non-specific peptidases [1]; incubation time 120 min): 0.010 | 00365 (absorbance of the organic layer at 365 nm) (purified collagenase [2]; incubation time 0 min): 0.033 | increment of 00365 (purified collagenase [2]; incubation time 10 min): 0.018 | 00365 (absorbance of the organic layer at 365 nm) (purified collagenase [2]; incubation time 10 min): 0.051 | increment of 00365 (purified collagenase [2]; incubation time 20 min): 0.018 | 00365 (absorbance of the organic layer at 365 nm) (purified collagenase [2]; incubation time 20 min): 0.071 | increment of 00365 (purified collagenase [2]; incubation time 40 min): 0.079 | 00365 (absorbance of the organic layer at 365 nm) (purified collagenase [2]; incubation time 40 min): 0.112 | increment of 00365 (purified collagenase [2]; incubation time 60 min): 0.107 | 00365 (absorbance of the organic layer at 365 nm) (purified collagenase [2]; incubation time 60 min): 0.140 | increment of 00365 (purified collagenase [2]; incubation time 120 min): 0.184 | 00365 (absorbance of the organic layer at 365 nm) (purified collagenase [2]; incubation time 120 min): 0.217 | OD365/0.1 ml ohr [3, 6]: 0.045 OD365/0.1 ml | OD365/0.1 ml 2hr [3, 6]: 0.591 OD365/0.1 ml | OD365/0.1 ml increment [3, 6]: 0.546 OD365/0.1 ml | OD365/0.1 ml ohr [3, 7]: 0.042 OD365/0.1 ml | OD365/0.1 ml 2hr [3, 7]: 0.045 OD365/0.1 ml | OD365/0.1 ml increment [3, 7]: 0.003 OD365/0.1 ml | OD365/0.1 ml ohr ([3]; synovial fluid of case one, RA): 0.041 OD365/0.1 ml | OD365/0.1 ml 2hr ([3]; synovial fluid of case one, RA): 0.058 OD365/0.1 ml | OD365/0.1 ml increment ([3]; synovial fluid of case one, RA): 0.017 OD365/0.1 ml | OD365/0.1 ml ohr ([3]; synovial fluid of case six, OA): 0.045 OD365/0.1 ml | OD365/0.1 ml 2hr ([3]; synovial fluid of case six, OA): 0.041 OD365/0.1 ml | OD365/0.1 ml increment ([3]; synovial fluid of case six, OA): 0 OD365/0.1 ml | OD365/0.1 ml ohr [3, 8]: 0.049 OD365/0.1 ml | OD365/0.1 ml 2hr [3, 8]: 0.695 OD365/0.1 ml | OD365/0.1 ml increment [3, 8]: 0.646 OD365/0.1 ml | OD365/0.1 ml ohr ([3]; synovial fluid of case two, OA): 0.045 OD365/0.1 ml | OD365/0.1 ml 2hr ([3]; synovial fluid of case two, OA): 0.043 OD365/0.1 ml | Rate of hydrolysis by Collagenase (purified collagenase [4]): 0.093 OD365/hr | Rate of hydrolysis by non-specific peptidases (non-specific peptidases [5]): 0 OD365/hr

CC(C)C[C@H](NC(=O)CNC(=O)[C@H](CCC(N)=O)NC(=O)[C@@H]1CCCN1c1ccc([N+](=O)[O-])cc1[N+](=O)[O-])C(=O)N[C@@H](C)C(=O)NCC(=O)N[C@@H](CCC(N)=O)C(=O)N[C@H](CCCNC(=N)N)C(=O)O [Example 4, DNP-Pro-Gln-Gly-Leu-Ala-Gly-Gln-D-Arg-OH] (Dnp-PQGLAGQ[dR]-OH)
Rate of hydrolysis by Collagenase (purified collagenase [4]): 0.243 OD365/hr | Rate of hydrolysis by non-specific peptidases (non-specific peptidases [5]): 0.031 OD365/hr

CC[C@H](C)[C@H](NC(=O)CNC(=O)[C@H](C)NC(=O)[C@@H]1CCCN1c1ccc([N+](=O)[O-])cc1[N+](=O)[O-])C(=O)N[C@@H](C)C(=O)NCC(=O)N[C@@H](CCC(N)=O)C(=O)N[C@H](CCCNC(=N)N)C(=O)O [Example 5, DNP-Pro-Ala-Gly-Ile-Ala-Gly-Gln-D-Arg-OH] (Dnp-PAGIAGQ[dR]-OH)
Rate of hydrolysis by Collagenase (purified collagenase [4]): 0.070 OD365/hr | Rate of hydrolysis by non-specific peptidases (non-specific peptidases [5]): 0.010 OD365/hr

CC(C)C[C@H](NC(=O)CNC(=O)[C@H](C)NC(=O)[C@@H]1CCCN1c1ccc([N+](=O)[O-])cc1[N+](=O)[O-])C(=O)N[C@@H](C)C(=O)NCC(=O)N[C@@H](CCC(N)=O)C(=O)N[C@H](CCCNC(=N)N)C(=O)O [Example 6, DNP-Pro-Ala-Gly-Leu-Ala-Gly-Gln-D-Arg-OH] (Dnp-PAGLAGQ[dR]-OH)
Rate of hydrolysis by Collagenase (purified collagenase [4]): 0.120 OD365/hr | Rate of hydrolysis by non-specific peptidases (non-specific peptidases [5]): 0.051 OD365/hr
